From US11207283B2 (priority 2016, dated 2021)
One block for each compound: values may come before it.

How the values were obtained:
GABA-AT = conditions: cited from earlier work
[1] = test system: Type I T. gondii tachyzoites; test: Effect of TgOAT inactivators on T. gondii in vitro (YFP RH tachyzoites in HFF); assay type: cell-based, Toxoplasma gondii; conditions: HFF host cells, 72 hours, tested into the millimolar range
Method: HFFs were grown to confluence in black, flat-bottomed 96-well microplates. […] Control triplicates with only fibroblasts and with pyrimethamine and sulfadiazine (the current standard of treatment of T. gondii infection) were also conducted. The cells and parasites were then incubated at 37° C. for 72 hours. Fluorescence was measured using a Bio-Tek Synergy™ H4 Hybrid Multi-Mode Microplate Reader.

[2] = test system: P. falciparum parasite, D6 (Sierra Leone); test: Malaria SYBR Green I-based fluorescence (MSF) assay; assay type: cell-based, Plasmodium falciparum; conditions: concentrations up to 10000 ng/mL, data not shown
human OAT = biological target: T1, human OAT (Homo sapiens, UniProt P04181); conditions: cited from earlier work
T1 sequence (P04181 36-439 limits assumed): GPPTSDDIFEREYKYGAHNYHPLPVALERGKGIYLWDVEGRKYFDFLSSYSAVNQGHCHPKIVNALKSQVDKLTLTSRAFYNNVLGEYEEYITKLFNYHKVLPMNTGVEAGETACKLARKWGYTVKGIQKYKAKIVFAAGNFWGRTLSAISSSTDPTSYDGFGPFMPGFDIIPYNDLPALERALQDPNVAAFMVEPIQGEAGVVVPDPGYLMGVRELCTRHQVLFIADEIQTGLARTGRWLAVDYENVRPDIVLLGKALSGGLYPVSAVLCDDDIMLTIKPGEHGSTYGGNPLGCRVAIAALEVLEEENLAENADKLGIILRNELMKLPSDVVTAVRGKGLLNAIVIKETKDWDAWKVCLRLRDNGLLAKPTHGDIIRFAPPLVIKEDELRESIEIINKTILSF

TgOAT = conditions: for KI (inactivation): read-out: KI (inhibition constant of inactivation), 10 mM L-ornithine; for KI (inactivation) / kinact/KI / kinact (rate constant of enzyme inactivation): time-dependent inactivators; for KI (inactivation) / kinact (rate constant of enzyme inactivation): pH 8.0, 37° C.; for activity in inactivating TgOAT (in words): summary of Table 1; for selectivity of inactivation, TgOAT versus GABA-AT and human OAT (in words): compared with literature data on GABA-AT and human OAT; for Ki: read-out: Ki (reversible inhibition), reversible inhibitors, calculated from the IC50 value
[3] = test system: glutamate decarboxylase (GAD); conditions: cited from earlier work
[4] = test system: aspartate aminotransferase (AspAT); conditions: cited from earlier work

Compound: NC(CF)CCC(=O)O (stereo not shown) [5-Fluoro-4-aminopentanoic acid, reference compound]
activity against GABA-AT (in words) (GABA-AT): very efficient inactivator

Compound: N[C@H]1C[C@@H](C(=O)O)CC1=C(F)F [Compound 1]
inhibition of tachyzoite replication in vitro [1]: no effects on active T. gondii infection
antimalarial activity in live-cell parasite assay [2]: no antimalarial activity
activity against human OAT (in words) (human OAT): potent inactivator
KI (inactivation) (TgOAT): 4.4 µM
activity in inactivating TgOAT (in words) (TgOAT): high activity in inactivating TgOAT
kinact/KI (TgOAT): 41670 M⁻¹ s⁻¹
kinact (rate constant of enzyme inactivation) (TgOAT): 11 min⁻¹
activity against GABA-AT (in words) (GABA-AT): extremely potent inactivator

Compound: NC1CC(C(=O)O)CC1=C(C(F)(F)F)C(F)(F)F (stereo not shown) [Compound 2]
inhibition of tachyzoite replication in vitro [1]: no effects on active T. gondii infection
antimalarial activity in live-cell parasite assay [2]: no antimalarial activity
activity against human OAT (in words) (human OAT): highly potent inactivator
KI (inactivation) (TgOAT): 4.8 µM
activity in inactivating TgOAT (in words) (TgOAT): high activity in inactivating TgOAT
kinact/KI (TgOAT): 15300 M⁻¹ s⁻¹
kinact (rate constant of enzyme inactivation) (TgOAT): 4.4 min⁻¹
activity against GABA-AT (in words) (GABA-AT): weak reversible inhibitor

Compound: NC1CC(C(=O)O)CC1=CC(F)(F)F (stereo not shown) [Compound 3]
KI (inactivation) (TgOAT): 30 µM
kinact/KI (TgOAT): 83.3 M⁻¹ s⁻¹
kinact (rate constant of enzyme inactivation) (TgOAT): 0.15 min⁻¹

Compound: NC1CC(C(=O)O)CC1=CC(F)(F)F (stereo not shown) [Compound 4]
KI (inactivation) (TgOAT): 21 µM
kinact/KI (TgOAT): 183 M⁻¹ s⁻¹
kinact (rate constant of enzyme inactivation) (TgOAT): 0.23 min⁻¹

Compound: NC1CC(C(=O)O)CC1=C(Cl)Cl (stereo not shown) [Compound 5]
inhibition of tachyzoite replication in vitro [1]: no effects on active T. gondii infection
antimalarial activity in live-cell parasite assay [2]: no antimalarial activity
activity against human OAT (in words) (human OAT): very weak reversible inhibitor
selectivity of inactivation, TgOAT versus GABA-AT and human OAT (in words) (TgOAT): high specific inactivation towards TgOAT but not GABA-AT or human OAT
KI (inactivation) (TgOAT): 15 µM
activity in inactivating TgOAT (in words) (TgOAT): high activity in inactivating TgOAT
kinact/KI (TgOAT): 4830 M⁻¹ s⁻¹
kinact (rate constant of enzyme inactivation) (TgOAT): 4.4 min⁻¹
activity against GABA-AT (in words) (GABA-AT): very weak reversible inhibitor

kinact/KI (TgOAT): 167 M⁻¹ s⁻¹
kinact (rate constant of enzyme inactivation) (TgOAT): 0.21 min⁻¹
Compound: NC1CC(C(=O)O)C=C1C(F)(F)C(F)(F)F (stereo not shown) [Compound 6]
KI (inactivation) (TgOAT): 21 µM

kinact/KI (TgOAT): 86.7 M⁻¹ s⁻¹
kinact (rate constant of enzyme inactivation) (TgOAT): 11 min⁻¹
Compound: NC1CC(C(=O)O)CC1F (stereo not shown) [Compound 7]
KI (inactivation) (TgOAT): 2100 µM

Compound: NC1CC(C(=O)O)CC1(F)F (stereo not shown) [Compound 8]
off-target activity at GAD (in words) [3]: significant
KI (inactivation) (TgOAT): 130 µM
kinact/KI (TgOAT): 1000 M⁻¹ s⁻¹
kinact (rate constant of enzyme inactivation) (TgOAT): 7.8 min⁻¹

kinact/KI (TgOAT): 31.7 M⁻¹ s⁻¹
kinact (rate constant of enzyme inactivation) (TgOAT): 5.0 min⁻¹
Compound: NC1CC(C(=O)O)CC1Br (stereo not shown) [Compound 9]
KI (inactivation) (TgOAT): 2600 µM

kinact/KI (TgOAT): 583 M⁻¹ s⁻¹
kinact (rate constant of enzyme inactivation) (TgOAT): 3.9 min⁻¹
Compound: NC1C(F)CC(C(=O)O)C1Br (stereo not shown) [Compound 10]
KI (inactivation) (TgOAT): 110 µM

Compound: NCc1c(CC(=O)O)cccc1C(F)(F)F [Compound 11]
inhibition of tachyzoite replication in vitro [1]: no effects on active T. gondii infection
antimalarial activity in live-cell parasite assay [2]: no antimalarial activity
activity against human OAT (in words) (human OAT): weak inactivator
selectivity of inactivation, TgOAT versus GABA-AT and human OAT (in words) (TgOAT): high specific inactivation towards TgOAT but not GABA-AT or human OAT
KI (inactivation) (TgOAT): 15 µM
activity in inactivating TgOAT (in words) (TgOAT): high activity in inactivating TgOAT
kinact/KI (TgOAT): 6000 M⁻¹ s⁻¹
kinact (rate constant of enzyme inactivation) (TgOAT): 5.4 min⁻¹
activity against GABA-AT (in words) (GABA-AT): weak reversible inhibitor

Compound: C[C@@H](F)[C@@H](N)CCC(=O)O [Compound 12]
Ki (TgOAT): 2900 µM

Ki (TgOAT): > 5000 µM
Compound: NCc1cocc1C(=O)O [Compound 13]

Ki (TgOAT): 4200 µM
Compound: NCc1cscc1C(=O)O [Compound 14]

Ki (TgOAT): 4900 µM
Compound: NCc1csc(C(=O)O)c1 [Compound 15]

Ki (TgOAT): > 5000 µM
Compound: NCc1ccc(C(=O)O)s1 [Compound 16]

Ki (TgOAT): > 5000 µM
Compound: NCc1c[nH]c(C(=O)O)c1 [Compound 17]

Compound: N[C@H](CF)CCC(=O)O [Compound 18, (S)-4-amino-5-fluoropentanoic acid]
inhibition of tachyzoite replication in vitro [1]: no effects on active T. gondii infection
antimalarial activity in live-cell parasite assay [2]: no antimalarial activity
activity against human OAT (in words) (human OAT): moderate inactivator
selectivity of inactivation, TgOAT versus GABA-AT and human OAT (in words) (TgOAT): high specific inactivation towards TgOAT but not GABA-AT or human OAT
KI (inactivation) (TgOAT): 4.6 µM
activity in inactivating TgOAT (in words) (TgOAT): high activity in inactivating TgOAT
kinact/KI (TgOAT): 36670 M⁻¹ s⁻¹
kinact (rate constant of enzyme inactivation) (TgOAT): 10 min⁻¹
activity against GABA-AT (in words) (GABA-AT): moderate inactivator

Compound: C=CC(N)CCC(=O)O (stereo not shown) [Compound 22, 4-am inohex-5-enoic acid, reference compound]
off-target activity at AspAT (in words) [4]: weakly affects
off-target activity at GAD (in words) [3]: no activity
KI (inactivation) (TgOAT): 440 µM
kinact/KI (TgOAT): 383 M⁻¹ s⁻¹
kinact (rate constant of enzyme inactivation) (TgOAT): 9.9 min⁻¹

Compound: gabaculine [Compound 23, reference compound]
KI (inactivation) (TgOAT): 0.82 µM
activity against GABA-AT (in words) (GABA-AT): equally potent irreversible inhibitor
